Experiments:
[1] = Phase 1 open-label drug-drug interaction trial: effect of repeated-dose CBD on the pharmacokinetics of a single dose of caffeine (plasma caffeine and paraxanthine, LC-MS/MS); type: in vivo, human; settings: trough samples Days 23, 25 and 26, 750 mg CBD b.i.d., before coadministration on Day 26
Source text: The duration of the trial was approximately 10 weeks, which includes a screening period (up to 4 weeks), a treatment period (4 weeks) and a safety follow-up period (2 weeks). After signing the informed consent form (ICF), participants entered the screening period (Day −28 to −1). […] The subjects were resident in the CRU for 2 periods. […] They were discharged on Day 3 after completion of the assessments. On Day 3, the first dose of CBD was taken in the morning in the CRU, and on this day, the escalating doses of CBD were dispensed to subjects to be taken at home from Day 4 to Day 12. After discharge on Day 3, the subjects returned to the CRU for ambulatory visits on Days 12, 18, and 23. At these ambulatory visits, the maintenance doses of CBD were dispensed to subjects to be taken at home from Day 13 to Day 25 (the evening dose of Day 25 was taken in the CRU). The subjects were admitted again to the CRU in the afternoon of Day 25. […] The subjects were discharged on Day 28 after completion of the assessments. […]
Plasma concentration of CBD determined on the following days: 23, 25, and 26. These were determined using liquid chromatography and tandem mass spectrometry. […]

serum ALT = experiment: Liver safety in the Phase 1 trial: serum liver chemistries (peak ALT versus ULN); type: in vivo, human
Source text: Clinical laboratory measurements of liver injury and function, the Upper Limit of Normal (ULN) values used are: 68 international units [IU]/L for ALT, 45 IU/L for aspartate aminotransferase (AST), 129 IU/L for alkaline phosphatase (ALP), 29 μmol/L for total bilirubin (TBL), and 59 IU/L for gamma-glutamyl transferase (GGT).
Drug induced liver injury (DILI) is when serum ALT exceeds 5×ULN.
In the above-outlined Phase 1 trial, abnormal liver chemistries were found for the subjects. This was unexpected as subjects were healthy adults receiving therapeutic equivalent doses of CBD used to treat Dravet Syndrome and Lennox-Gastaut Syndrome (1500 mg/day).
Measurements were performed at screening, on trial Days −1, 12, 18, 23, 27, and at follow-up.

[2] = healthy adults, CBD 1500 mg/day
[3] = healthy adults, CBD 1500 mg/day, 16 participants, ALT ULN 68 IU/L

In the case of `C=C(C)[C@@H]1CCC(C)=C[C@H]1c1c(O)cc(CCCCC)cc1O` [CBD, Cannabidiol], the “trough plasma levels of CBD” value [1] was “reached steady state”, the “rate of abnormal liver chemistries in healthy volunteers” value (serum ALT; CBD at the doses used in this study) was 44% and the “exposure time at which all ALT elevations occurred” value (serum ALT; exposure to cannabidiol) was 2-4 weeks. For the same compound, the “participants with peak ALT >5×ULN (international consensus criteria for DILI)” value (serum ALT; [2]) was 5 (31%) participants, the “participants with peak serum ALT >2×ULN” value (serum ALT; [2]) was 6 (38%) participants and the “participants with peak serum ALT ≥2 × ULN” value (serum ALT; [3]) was 6 (38%). The “participants with peak serum ALT ≥3 × ULN” value (serum ALT; [3]) was 5 (31%), the “participants with peak serum ALT ≥5 × ULN” value (serum ALT; [3]) was 5 (31%) and the “participants with peak serum ALT ≥10 × ULN” value (serum ALT; [3]) was 0 (0). For the same compound, the “participants with peak serum ALT ≥20 × ULN” value (serum ALT; [3]) was 0 (0), the “participants with peak serum ALT >ULN” value (serum ALT; healthy adults, CBD up to 750 mg b.i.d. (1500 mg/day), 16 participants, ALT ULN 68 IU/L) was 7 (44%) and the “trial days between which all ALT elevations occurred” value (serum ALT; trial day) was 18 to 27 days.

Reference: patent US12661365B2, “Use of cannabidiol in the treatment of epilepsy” (priority 2020, dated 2026)
